From PubChem BioAssay AID1996 come the findings set out here.

Broadly, the kinetic solubility is solubility judged after dilution from a stock solution rather than from solid.

≈ marks a conversion by molar mass, not a printed value.

The conditions of the data set: buffer; pH 7.4; 200.0 µM.
Compound `O=C(c1cc2ccccc2o1)N1CC=C(c2ccccc2)CC1` gave a kinetic solubility of 5.1 µg/mL (≈ 16.8 µM).
With `O=C1c2ccccc2C(=O)N1c1ccc(Cc2ccncc2)cc1`, the solubility (kinetic) was found to be 44.9 µg/mL (≈ 143 µM).
Regarding `COc1cc(CCC(=O)Nc2nccs2)cc(OC)c1OC`, the solubility (kinetic) was over 48.4 µg/mL.
Regarding `CCCn1c(N)c(C(=O)COC(=O)/C=C/c2ccc(OC(F)F)c(OC)c2)c(=O)[nH]c1=O`, the solubility (kinetic) turned out to be 9 µg/mL (≈ 19.9 µM).
To `Cc1nc(N)nc(COc2ccccc2)n1` belongs over 32.4 µg/mL.
In the case of `CCC(C)Nc1nc(C)nc2c1oc1ccccc12.Cl` (stereo not given) it was 41.3 µg/mL.
In the case of `O=C(NCc1cccnc1)c1nn2cccnc2c1Cl` it was over 43.2 µg/mL; in that of `N#Cc1ccccc1OCC(=O)NNC(=O)c1ccncc1`, over 44.4 µg/mL.
Take `CCOc1ccc(C(=O)CCC(=O)Nc2ncccc2O)cc1`: the kinetic solubility was over 47.2 µg/mL.
In the case of `COc1ccc(NC(=O)/C(C#N)=C/c2cccnc2)c(OC)c1` it was 24.8 µg/mL (≈ 80.2 µM).
`NC1=NC(c2cccnc2)n2c(nc3ccccc32)N1` (stereo not given) showed a solubility (kinetic) of over 39.6 µg/mL.
In the case of `CCC(CC)C(=O)Nc1ccc(C(=O)Nc2cc(C)on2)cc1` it was 5.7 µg/mL (≈ 18.1 µM).
In the case of `O=C(COC(=O)/C=C/c1ccccc1Cl)NCC1CCCO1` (stereo not given) it was 31.9 µg/mL (≈ 98.5 µM); in that of `CC1=C([N+](=O)[O-])C(c2ccc3c(c2)OCO3)N(C)C(=O)N1C` (stereo not given), 36.4 µg/mL (≈ 119 µM); in that of `CC1CCN(c2ccc(C(F)(F)F)cc2N)CC1`, under 0.3 µg/mL.
To `CCOC(=O)C1(Cc2ccccc2)CCCN(C2CCCC2)C1` (stereo not given) belongs over 47.3 µg/mL; to `CC1C(=O)N2CCCc3cc(NC(=O)C(=O)NCc4cccnc4)cc1c32` (stereo not given), over 54.7 µg/mL; to `Cc1cc(C)cc(NC(=O)NC2CCCCCCC2)c1`, 1 µg/mL (≈ 3.64 µM).
As for `CN(C)c1ccc(/C=C2\C(=O)NC(=O)N(CCc3ccc(F)cc3)C2=O)cc1`, the kinetic solubility amounted to 11.2 µg/mL (≈ 29.4 µM). Against the preceding compound, the solubility kinetic is about 11-fold higher.
To `O=C(CN1CCN(Cc2ccc(F)cc2)C1=O)NC1CCCC1` belongs over 47.9 µg/mL.
In the case of `N/C(=N\C(=S)Nc1ccccc1)c1ccccc1` it was over 38.3 µg/mL; in that of `CC(=O)Nc1ccc(S(=O)(=O)N(C)C2CCN(C)CC2)cc1`, over 48.8 µg/mL.
To `O=C(Cn1cnc([N+](=O)[O-])c1)Nc1ccccc1C(F)(F)F` belongs 39 µg/mL (≈ 124 µM); to `CCOn1c(=O)c(-c2cc(OC)ccc2OC)[n+]([O-])c2ccccc21`, over 51.4 µg/mL; to `Cc1sc2ncnc(N3CCCC(C)C3)c2c1C.Cl` (stereo not given), 11 µg/mL.
Turning to `Fc1cc2[nH]c(=S)[nH]c2cc1Cl`, the kinetic solubility is 26.5 µg/mL (≈ 131 µM).
To `COc1ccc(S(=O)(=O)NCc2ccccn2)c(C)c1C` belongs 32.8 µg/mL (≈ 107 µM); to `CC1CCCN(C(=O)CCCNC(=O)c2ccc(Cl)cc2)C1` (stereo not given), over 48.4 µg/mL.
To `O=C(NC(=S)Nc1ccccc1)c1cccs1` belongs 1.4 µg/mL (≈ 5.34 µM).
In the case of `Cc1cccc(NC(=O)c2cccnc2)c1C` it was 24.1 µg/mL (≈ 107 µM).
Compound `CC1Cc2ccccc2N1Cc1cccc(S(=O)(=O)N(C)C)c1` (stereo not given) returned a solubility (kinetic) of 9.4 µg/mL (≈ 28.4 µM). This solubility kinetic lies about 2.6-fold lower than the previous one.
To `COc1ccccc1/C=C/C(=O)OCC(=O)Nc1ccc2c(c1)OCO2` belongs 3.3 µg/mL (≈ 9.29 µM).
To `C=CCOc1cccc(C(=O)NC(c2ccccc2)C(C)C)c1` (stereo not given) belongs 1.2 µg/mL (≈ 3.88 µM); to `CC(=O)Nc1ccc(C(=O)OCCc2ccccc2)cc1`, 38.8 µg/mL (≈ 137 µM); to `Cc1cccc(OCCCN2CCOCC2)c1C`, 25.4 µg/mL (≈ 102 µM).
To `CC(C)S(=O)(=O)c1cnc(-c2ccccn2)nc1N` belongs 37.6 µg/mL (≈ 135 µM); to `c1cc2c(cc1CN1CCNCC1)OCO2`, 31.8 µg/mL (≈ 144 µM); to `CCc1ccc(OC(=O)c2cccnc2)cc1`, 26.8 µg/mL (≈ 118 µM).
Compound `CCCCN(C(C)=O)c1ccc(S(=O)(=O)NC2=NCCCCC2)cc1NC(C)=O` registered a kinetic solubility of over 63.4 µg/mL.
Consider `COc1ccc(-n2c(C)c(C)c3c(NCCCO)ncnc32)cc1`, for which the solubility (kinetic) is over 49 µg/mL.
Consider `CC(NC(=O)COc1ccccc1Cl)c1ccccc1` (stereo not given), for which the solubility (kinetic) was over 43.5 µg/mL.
To `CCCN1CCC(NC(=O)Cc2ccccc2OC)CC1` belongs 43.5 µg/mL (≈ 150 µM); to `CC(=O)N1CCN(C(=O)c2cc(C)oc2C)CC1`, over 37.5 µg/mL; to `COc1ccccc1-n1nc(C)c(-c2ccccc2)c1N`, over 41.9 µg/mL.
In the case of `Cc1nc(/C(N)=N/OC(=O)Cc2ccccc2)no1` it was 24.4 µg/mL (≈ 93.8 µM); in that of `O=[N+]([O-])c1cccnc1N1CCN(c2ccc(F)cc2)CC1`, 12.1 µg/mL (≈ 40 µM).
In the case of `Brc1ccc(CN2CCCCCC2)cc1` it was 12.5 µg/mL (≈ 46.6 µM); in that of `CC(C)Nc1c([N+](=O)[O-])c(=O)oc2ccccc12`, 26.4 µg/mL (≈ 106 µM); in that of `Cc1cc(C)c(S(=O)(=O)NC2CC2)c(C)c1`, over 35.9 µg/mL.
In turn, `COc1ccc(CCNC(=O)C(C)OC(=O)c2cccs2)cc1OC` (stereo not given) had a kinetic solubility of 49 µg/mL (≈ 135 µM).
To `Nc1cc(Cl)ccc1C(=O)OCC(=O)N1CCCC1` belongs 21.4 µg/mL (≈ 75.7 µM); to `CC(=O)NCCC(=O)N1CCCC(N(C)CCc2ccccc2)C1` (stereo not given), over 49.7 µg/mL; to `O=C(Nc1ccc(Nc2ccccc2)cc1)Nc1ccccc1Cl`, under 0.2 µg/mL.
Take `O=C(CCCO)NNc1c2ccccc2nc2ccccc12`: the kinetic solubility is over 44.3 µg/mL.
In the case of `COC(=O)c1cc(S(=O)(=O)N(C)C2CCCCC2)c[nH]1` it was over 45.1 µg/mL.
In the case of `O=C(OCc1csc(-c2ccccc2)n1)c1ccc(O)cc1` it was under 0.7 µg/mL; in that of `CC1CN(C(=S)Nc2ccc(SC(F)F)cc2)CC(C)O1` (stereo not given), over 49.9 µg/mL; in that of `CCOC(=O)C1CCCN(C(=O)c2ccc(Cl)cc2)C1` (stereo not given), over 44.4 µg/mL.
As to `CCc1nc(=O)c(-c2ccccc2)c(C)n1-c1ccccc1`, the solubility (kinetic) was over 43.6 µg/mL.
Take `CN(Cc1c(O)ccc2c1oc(=O)c1ccccc12)C1CCCCC1`: the kinetic solubility was over 50.6 µg/mL.
In the case of `CCCCN(C(=O)CN(C)CC(=O)Nc1cccc(OC)c1)c1c(N)n(CCCC)c(=O)[nH]c1=O` it was over 73.3 µg/mL; in that of `CN(CCC#N)C(=O)c1cc2c(s1)-c1ccccc1SC2`, 24.9 µg/mL (≈ 79.2 µM); in that of `CNCc1cc(Cl)cc(OC)c1OC(C)C.Cl`, over 42 µg/mL.
To `Cc1ccc(Nc2c(-c3ccccc3O)nc3ncccn23)cc1` belongs 0.7 µg/mL (≈ 2.21 µM); to `Cc1cc(C)c2cc(C(=O)N3CCC(N4CCCCC4)CC3)[nH]c2c1`, over 50.9 µg/mL; to `O=C(/C=C/c1cccc(F)c1)Nc1ccc(S(=O)(=O)N2CCOCC2)cc1`, 1 µg/mL (≈ 2.56 µM).
To `Cc1cnc(=O)[nH]c1SCc1ccc([N+](=O)[O-])cc1` belongs 22.1 µg/mL (≈ 79.7 µM).
For the compound `CNC(=O)c1ccccc1Sc1ccccc1CO`, the solubility (kinetic) worked out at 40.3 µg/mL (≈ 147 µM).
For `Cc1ccc(S(=O)(=O)NC2CCCCCC2)cc1`, the kinetic solubility is over 40.1 µg/mL.
In the case of `CCOC(=O)CSc1nc2c(c(=O)[nH]1)C(C)(CC)Cc1ccccc1-2` (stereo not given) it was 1.5 µg/mL (≈ 4.18 µM); in that of `CCCOc1ccc(NC(=O)c2cc3cc(C)ccc3[nH]2)cc1`, under 0.3 µg/mL.
The compound `Cc1noc(C)c1C(=O)OCC(=O)C12CC3CC(CC(C3)C1)C2` registered a kinetic solubility of under 0.7 µg/mL.
As for `O=S(=O)(Nc1ccccc1F)c1ccc(Cl)nc1`, the solubility (kinetic) was over 43 µg/mL.
To `Cc1ccccc1CCNCc1cc2cccc(C)c2[nH]c1=O` belongs over 46 µg/mL; to `O=c1c([N+](=O)[O-])c(N2CCCC2)c2ccccc2n1-c1ccccc1`, 46.7 µg/mL (≈ 139 µM).
To `Cn1c(=O)c(C(=O)c2ccccc2)c(O)c2ccccc21` belongs 38.8 µg/mL (≈ 139 µM).
`Cc1cc2oc(=O)cc(C)c2cc1NC(=O)CCl` came in with a solubility (kinetic) of 39.4 µg/mL (≈ 148 µM).
To `CSCCC(NC(=O)c1ccco1)C(=O)NCC1CCCCC1` (stereo not given) belongs over 50.8 µg/mL; to `O=C(CSc1nccc(=O)[nH]1)c1c[nH]c2ccccc12`, over 42.8 µg/mL.
To `CCc1ccc(N=C2NC(=O)CS2)cc1` belongs 32.3 µg/mL (≈ 147 µM); to `CC(=O)Nc1cccc(OCC(=O)NCCC2=CCCCC2)c1`, over 47.5 µg/mL.
In the case of `Cc1[nH]c2ccccc2c1C(=O)COc1ccccc1F` it was 1.6 µg/mL (≈ 5.65 µM); in that of `CCOc1cccc(C2C(C(=O)c3ccc(C)o3)=C(O)C(=O)N2Cc2ccccc2)c1` (stereo not given), 62.5 µg/mL (≈ 150 µM); in that of `CC(NCCC1(Cc2ccccc2Cl)CCOC(C)(C)C1)c1cccs1` (stereo not given), 46.3 µg/mL (≈ 118 µM).
In the case of `COc1ccc(C(=O)C2CCCN(S(=O)(=O)C(C)C)C2)c(C)c1` (stereo not given), the solubility (kinetic) worked out at 45.4 µg/mL (≈ 134 µM).
In the case of `O=C(Nc1scc(-c2ccccc2)c1C(=O)O)c1ccccc1Cl` it was 52.6 µg/mL (≈ 147 µM); in that of `O=C(COC(=O)c1ccccc1)NCCC1=CCCCC1`, 24.1 µg/mL (≈ 83.9 µM).
In the case of `CCC1C(=O)NCCN1Cc1nc(-c2ccc(C)s2)oc1C` (stereo not given) it was 39.3 µg/mL (≈ 123 µM); in that of `COc1ccc(/C=C/C(=O)NC2=NCCS2)cc1OC`, 1.5 µg/mL (≈ 5.13 µM).
`Cc1nc(OCC(C)C)c2sc3nc4c(cc3c2n1)COC(C)(C)C4` displayed a solubility (kinetic) of 14.6 µg/mL (≈ 40.8 µM).
Compound `O=C(c1ccc(Oc2cc(Cl)cc(Cl)c2)o1)N1CCCCC1` showed a kinetic solubility of 7.7 µg/mL (≈ 22.6 µM).
To `COCCn1c(SCC(=O)NC2CCCC2)nc2cccnc21` belongs over 50.2 µg/mL.
The compound `NC(=O)/C(=C/c1cccnc1)NC(=O)c1ccccc1` registered a solubility (kinetic) of over 40.1 µg/mL.
To `COc1ccc(NC(=O)c2cc3ccc(O)cc3o/c2=N\O)cc1` belongs under 0.3 µg/mL.
In the case of `CC1CCCC(NC(=O)COC(=O)[C@@H](NC(=O)c2ccccc2Cl)C(C)C)C1C` (stereo not given in full), the solubility (kinetic) came to 46.1 µg/mL (≈ 109 µM).
In the case of `COCCNC(=O)/C(C#N)=C/c1cccs1` it was over 35.4 µg/mL.
To `Cc1cc(Cl)ccc1NC(=O)/C=N/O` belongs over 31.9 µg/mL; to `O=C(CCc1nnc(C2CCCCC2)o1)NCc1ccc(F)c(F)c1`, over 52.4 µg/mL.
To `COc1ccc(NC(=O)c2onc(C)c2Cl)cc1` belongs 10 µg/mL (≈ 37.5 µM); to `CN1CCCN(C(=O)COc2cccc(C(F)(F)F)c2)CC1`, over 47.4 µg/mL.
In turn, `O=C(OCCN=C1NS(=O)(=O)c2ccccc21)c1ccccc1F` yielded a solubility (kinetic) of 5.7 µg/mL (≈ 16.4 µM).
In the case of `C[C@H](C(=O)NCc1ccccc1)C(=O)c1ccccc1` it was over 40.1 µg/mL; in that of `c1ccc(CCCN2CCOCC2)cc1`, 19.2 µg/mL (≈ 93.5 µM).
The compound `CCCOc1ncnc2c1[nH]c1ccc(C)cc12` gave a solubility (kinetic) of 0.9 µg/mL (≈ 3.73 µM).
In turn, `NS(=O)(=O)c1cccc(NC(=O)Nc2ccc(Cl)cc2)c1` came in with a solubility (kinetic) of 10.7 µg/mL (≈ 32.8 µM).
